Common to all, as to type: functional
The subject of experiment [1] is Radical scavenging activity. Briefly: Antioxidant activity assessed as DPPH radical scavenging activity after 30 min. Background: Loss of DPPH colour is used to gauge radical scavenging.
Experiment [2] is described as follows: Antioxidant activity assessed as ferric ion reducing activity measured as trolox equivalents by FRAP assay.
The nature of experiment [3]: Antioxidant activity assessed as ABTS radical scavenging activity.
Experiment [4] concerns Mus musculus. Description: Hypolipidemic activity in high cholesterol diet fed Mus musculus KM (mouse) assessed as low density lipoprotein cholesterol at 150 mg/kg, ig for 10 days (reference value: 4.2972 +/- 1.1725 mmol/l). Particulars: route intragastric.
Experiment [5] has as its system Mus musculus. Briefly: Hypolipidemic activity in high cholesterol diet fed Mus musculus KM (mouse) assessed as triglyceride level at 150 mg/kg, ig for 10 days (reference value: 0.9359 +/- 0.2817 mmol/l). Particulars: route intragastric.
The test system of experiment [6] is Mus musculus. Briefly: Hypolipidemic activity in high cholesterol diet fed Mus musculus KM (mouse) assessed as high density lipoprotein cholesterol at 150 mg/kg, ig for 10 days (reference value: 2.6953+/- 0,58099 mmol/l). Particulars: route intragastric.
Experiment [7] deals with Mus musculus. Description: Antioxidant activity in high cholesterol diet fed Mus musculus KM (mouse) assessed as MDA level in liver at 150 mg/kg, ig for 10 days (reference value: 13.6188 +/- 4.2522 nmol/ml). Particulars: route intragastric.
Experiment [8] deals with Mus musculus. Description: Hypolipidemic activity in high cholesterol diet fed Mus musculus KM (mouse) assessed as total cholesterol level at 150 mg/kg, ig for 10 days (reference value: 7.3219 +/- 1.00196 mmol/l). As to conditions: route intragastric.
For experiment [9], the system named is Mus musculus. Description: Antioxidant activity in high cholesterol diet fed Mus musculus KM (mouse) assessed as MDA level in liver at 70 mg/kg, ig for 10 days (reference value: 9.95 +/- 0.15 nmol/ml). As to conditions: route intragastric.
Experiment [10] relates to Mus musculus. Description: Hypolipidemic activity in high cholesterol diet fed Mus musculus KM (mouse) assessed as high density lipoprotein cholesterol at 70 mg/kg, ig for 10 days (reference value: 1.028 +/- 0.139 mmol/l). Particulars: route intragastric.
For experiment [11], the system named is Mus musculus. Description: Hypolipidemic activity in high cholesterol diet fed Mus musculus KM (mouse) assessed as low density lipoprotein cholesterol at 70 mg/kg, ig for 10 days (reference value: 3.386 +/- 0.958 mmol/l). Particulars: route intragastric.
Experiment [12] concerns Mus musculus. Briefly: Hypolipidemic activity in high cholesterol diet fed Mus musculus KM (mouse) assessed as total cholesterol level at 70 mg/kg, ig for 10 days (reference value: 4.402 +/- 0.8 mmol/l). Particulars: route intragastric.
The test system of experiment [13] is Mus musculus. Briefly: Hypolipidemic activity in high cholesterol diet fed Mus musculus KM (mouse) assessed as triglyceride level at 70 mg/kg, ig for 10 days (reference value: 1.391 +/- 0.351 mmol/l). Particulars: route intragastric.

The IC50 is the concentration that inhibits the measured activity by half.

The structures appear in SMILES notation. Values after ≈ are worked out from the molar mass of the structure shown. Active and inactive are the calls of the source. The calls are words filed in the database; no cut-off is given here.

`COc1cc([C@@H]2OC[C@@H]3[C@H]2CO[C@H]3c2ccc(O)c(OC)c2)ccc1O` [(+)-PINORESINOL]: the IC50 in [1] came out at 8.66 µg/mL (≈ 24.2 µM); in experiment [3], 3.08 µg/mL (≈ 8.59 µM). The Activity in experiment [2] was determined as 2580 µmol/g.

For the molecule `Cc1cc(C(C)(C)C)c(O)c(C(C)(C)C)c1` [BUTYLATED HYDROXYTOLUENE], the IC50 in experiment [1] came out at 17.21 µg/mL (≈ 78.1 µM); in experiment [3], 6.04 µg/mL (≈ 27.4 µM). Also, in [2], the Activity amounted to 1750 µmol/g.

With `COc1cc([C@H]2OC[C@H]3[C@@H]2CO[C@H]3c2ccc(OC)c(OC)c2)ccc1O` [PHILLYGENIN], the half-maximal inhibitory concentration (IC50) in experiment [1] was 15.51 µg/mL (≈ 41.6 µM); in [3], 3.58 µg/mL (≈ 9.61 µM). The Activity in the experiment on Mus musculus [4] is 3.1861 mmol/L; in [2] it was 2440 µmol/g; in the experiment on Mus musculus [5], 0.3249 mmol/L; in the experiment with Mus musculus [6] it was 2.4571 mmol/L; in the experiment on Mus musculus [7] it was 7.9321 nmol/mL; in the experiment with Mus musculus [8] it was 7.2123 mmol/L.

With `O=c1c(O)c(-c2ccc(O)c(O)c2)oc2cc(O)cc(O)c12` [QUERCETIN], the IC50 in experiment [1] was 1.03 µg/mL (≈ 3.41 µM). Further, the result in experiment [2] was inactive.

As to `C[C@@H]1O[C@@H](OC[C@H]2O[C@@H](Oc3c(-c4ccc(O)c(O)c4)oc4cc(O)cc(O)c4c3=O)[C@H](O)[C@@H](O)[C@@H]2O)[C@H](O)[C@H](O)[C@H]1O` [RUTIN], the Activity is 5.1 nmol/mL in the experiment with Mus musculus [9]; 1.422 mmol/L with Mus musculus [10]; 2.639 mmol/L with Mus musculus [11]; 3.124 mmol/L in the experiment on Mus musculus [12]; 0.828 mmol/L in the experiment with Mus musculus [13]. For the same molecule, the concentration for half-maximal inhibition (IC50) in experiment [1] worked out at 1.83 µg/mL (≈ 3 µM); in [3], 4.65 µg/mL (≈ 7.62 µM). Further, the result in experiment [2] was inactive.

Regarding `C[C@H]1[C@H](C)CC[C@]2(C(=O)O)CC[C@]3(C)C(=CC[C@@H]4[C@@]5(C)CC[C@H](O)C(C)(C)[C@@H]5CC[C@]43C)[C@H]12` [URSOLIC ACID], the IC50 result in experiment [1] and in experiment [3] was “Not Active” in each case. Moreover, the Activity was determined as 1.5655 mmol/L with Mus musculus [4]; 13.6 µmol/g in experiment [2]; 0.4322 mmol/L in the experiment on Mus musculus [5]; 2.4373 mmol/L in the experiment on Mus musculus [6]; 7.326 nmol/mL with Mus musculus [7]; 5.2196 mmol/L in the experiment on Mus musculus [8].

The values are drawn from ChEMBL document CHEMBL3044792, “In vitro antioxidant properties and in vivo lowering blood lipid of Forsythia suspense leaves” (Med Chem Res, 2010).
